Measurements published in publication PMC6581720 (Frontiers in Microbiology, 2019).

Biological target: T1, SpoIVB (sporulation factor IV B protease) (Bacillus subtilis, UniProt P17896, S378A)
T1 construct: truncated SpoIVB (residues Thr75-Ser426), N-terminal 6 × His and mMBP fusion tags
Test: microscale thermophoresis (MST), RED-NHS labelled protein
Format: binding

T1 sequence (P17896 75-426 S378A): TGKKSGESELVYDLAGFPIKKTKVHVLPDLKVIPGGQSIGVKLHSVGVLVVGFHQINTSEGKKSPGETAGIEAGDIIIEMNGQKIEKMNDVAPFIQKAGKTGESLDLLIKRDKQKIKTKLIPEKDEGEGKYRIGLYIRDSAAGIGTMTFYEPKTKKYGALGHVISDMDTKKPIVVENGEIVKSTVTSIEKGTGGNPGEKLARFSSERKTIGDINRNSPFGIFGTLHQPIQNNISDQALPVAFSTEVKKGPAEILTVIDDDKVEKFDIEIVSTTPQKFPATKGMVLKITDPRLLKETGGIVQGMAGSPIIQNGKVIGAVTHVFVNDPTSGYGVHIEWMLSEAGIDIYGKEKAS

N=C(N)c1ccccc1 [benzamidine]
Kd: 660 ± 28 µM
